This is an account of results in ChEMBL document CHEMBL3045993, “Expedient synthesis of some novel pregnane derivatives and their evaluation as anti-oxidant and anti-dyslipidemic agents” (2011).

For orientation: inhibition means the change of the read-out against control, counted positive when it falls.

Assay type in all cases: functional
Assay [1] is described as follows: Antioxidant activity assessed as inhibition of xanthine oxidase-mediated superoxide anion release at 100 ug/ml after 30 min relative to control.
The test system of assay [2] is Rattus norvegicus. As to the kind of experiment: Antidyslipidemic activity in Rattus norvegicus Charles Foster (rat) assessed as activation of post heparin lipolytic activity at 400 mg/kg, po after 18 hr relative to control.
Assay [3] deals with Rattus norvegicus. As to the kind of experiment: Antidyslipidemic activity in high fat diet fed Rattus norvegicus Charles Foster (rat) assessed as activation of cholesterol acyltransferase in plasma at 100 mg/kg, po administered QD for 30 days relative to control.
The test system of assay [4] is Rattus norvegicus. As to the kind of experiment: Antidyslipidemic activity in high fat diet fed Rattus norvegicus Charles Foster (rat) assessed as activation of liver phopholipase at 100 mg/kg, po administered QD for 30 days relative to control.
The test system of assay [5] is Rattus norvegicus. Nature of the assay: Antidyslipidemic activity in high fat diet fed Rattus norvegicus Charles Foster (rat) assessed as inhibition of cholesterol-induced phospholipid level in plasma at 100 mg/kg, po administered QD for 30 days relative to control. Particulars: 720 h.
Assay [6] can be described thus: Antioxidant activity assessed as inhibition of hydroxy radical generation at 100 ug/ml after 90 min by thiobarbuteric acid method.
The test system of assay [7] is Liver microsome. Nature of the assay: Antioxidant activity in Rattus norvegicus (rat) liver microsomes assessed as inhibition of lipid peroxidation at 100 ug/ml after 90 min by thiobarbuteric acid method. Background: Microsomes from liver hold many membrane-bound enzymes, among them those of drug oxidation.
Assay [8] has as its system Rattus norvegicus. Nature of the assay: Antidyslipidemic activity in Rattus norvegicus Charles Foster (rat) assessed as activation of post heparin lipolytic activity at 100 mg/kg, po after 18 hr relative to control.
Assay [9] relates to Rattus norvegicus. As to the kind of experiment: Antidyslipidemic activity in Rattus norvegicus Charles Foster (rat) assessed as inhibition of triton WR1339-induced triglyceride in plasma at 100 mg/kg, po after 18 hr relative to control.
For assay [10], the system named is Rattus norvegicus. As to the kind of experiment: Antidyslipidemic activity in Rattus norvegicus Charles Foster (rat) assessed as inhibition of triton WR1339-induced total cholesterol in plasma at 100 mg/kg, po after 18 hr relative to control. Particulars: read-out: INH.
The test system of assay [11] is Rattus norvegicus. Nature of the assay: Antidyslipidemic activity in Rattus norvegicus Charles Foster (rat) assessed as inhibition of triton WR1339-induced phospholipid in plasma at 100 mg/kg, po after 18 hr relative to control.

For `C/C(=N\OC(C)C)C1=CC[C@H]2[C@@H]3CC=C4C[C@@H](O)CC[C@]4(C)[C@H]3CC[C@]12C`, the inhibition in [1] was -9%. Moreover, the Activity in [2] is 23%.
For `CC(=O)[C@H]1[C@H](c2cc(F)ccc2N)C[C@H]2[C@@H]3CC=C4C[C@@H](O)CC[C@]4(C)[C@H]3CC[C@@]21C` [3BETA-HYDROXY-16ALPHA-(2-AMINO-5-FLUORO-PHENYL)-PREGN-5-EN-20-ONE], the Activity is recorded as 24% in assay [2], 28% in assay [3] and 27% in assay [4]. The inhibition in vivo at 100 mg/kg in assay [5] was -21%.
On to `C[C@H](O)[C@H]1[C@H](OCCOCCO)C[C@H]2[C@@H]3CC=C4C[C@@H](O)CC[C@]4(C)[C@H]3CC[C@]12C` [3BETA,20BETA-DIHYDROXY-16ALPHA-[2(2-HYDROXYETHOXY)-ETHOXY]-PREGN-5-EN], for which the Activity in [2] is 17%.
As to `CC(=O)OC(C)CO[C@@H]1C[C@H]2[C@@H]3CC=C4C[C@@H](OC(C)=O)CC[C@]4(C)[C@H]3CC[C@]2(C)[C@H]1C(C)=O` (stereo partly drawn) [3BETA-ACETOXY-16ALPHA-(2-ACETOXY PROPOXY)-PREGN-5-EN-20-ONE], the Activity in assay [2] came to 13%. Besides, the inhibition in [6] is -9%.
With `CC(=O)[C@H]1[C@H](Nc2ccc(Cl)cc2)C[C@H]2[C@@H]3CC=C4C[C@@H](O)CC[C@]4(C)[C@H]3CC[C@@]21C` [3BETA-HYDROXY-16ALPHA-(4-CHLORO PHENYLAMINO)-PREGN-5-EN-20-ONE], the inhibition in assay [7] was -8%. For the same compound, the Activity is listed as 31% in assay [2], 23% in assay [3] and 18% in [4]. The inhibition in vivo at 100 mg/kg in assay [5] was -25%.
For `COCCO[C@@H]1C[C@H]2[C@@H]3CC=C4C[C@@H](O)CC[C@]4(C)[C@H]3CC[C@]2(C)[C@H]1C(C)=O` [3BETA-HYDROXY-16ALPHAA-(2-METHOXYETHOXY)PREGN-5-EN-20-ONE], the Activity in assay [2] is 18%.
For `COCCO[C@@H]1C[C@H]2[C@@H]3CC=C4C[C@@H](O)CC[C@]4(C)[C@H]3CC[C@]2(C)[C@H]1[C@H](C)O` [3BETA,20BETA-DIHYDROXY-16ALPHA-(2-METHOXY ETHOXY)-PREGN-5-EN], the inhibition in assay [7] is -10%. In [2], the Activity was 17%.
As for `COCCO[C@@H]1C[C@H]2[C@@H]3CC=C4C[C@@H](OC(C)=O)CC[C@]4(C)[C@H]3CC[C@]2(C)[C@H]1C(C)=O` [3BETA-ACETOXY-16ALPHA-(2-METHOXY ETHOXY)-PREGN-5-EN-20-ONE], the Activity in assay [2] worked out at 18%.
Turning to `CC(=O)[C@H]1[C@H](OCC(C)O)C[C@H]2[C@@H]3CC=C4C[C@@H](O)CC[C@]4(C)[C@H]3CC[C@@]21C` (stereo partly drawn) [3BETA-HYDROXY-16ALPHA-(2-HYDROXY PROPOXY)PREGN-5-EN-20-ONE], the Activity in [2] is reported as 21%.
Turning to `Cc1ccc(C)c(OCCCC(C)(C)C(=O)O)c1` [GEMFIBROZIL], the results for the Activity in assay [8], in [3] and in [4] were 32%, 31% and 33%, respectively. Moreover, the inhibition in vivo at 100 mg/kg was 36% in assay [9], 36% in assay [10], -34% in assay [11] and -31% in assay [5].
On to `CC(=O)[C@H]1[C@H](OCCOCCO)C[C@H]2[C@@H]3CC=C4C[C@@H](O)CC[C@]4(C)[C@H]3CC[C@@]21C` [3BETA-HYDROXY-16ALPHA-[2(2-HYDROXY ETHOXY)-ETHOXY]PREGN-5-EN-20-ONE], for which the Activity in assay [2] worked out at 17%.
The same measure, in the same setting: the same measure for `CC(=O)[C@@]1(O)[C@H](OCCO)C[C@H]2[C@@H]3CC=C4C[C@@H](O)CC[C@]4(C)[C@H]3CC[C@@]21C` [3BETA,17ALPHA-DIHYDROXY-16ALPHA-(2-HYDROXY ETHOXY)PREGN-5-EN-20-ONE]: 21%.
As to `CC(=O)OCCOCCO[C@@H]1C[C@H]2[C@@H]3CC=C4C[C@@H](OC(C)=O)CC[C@]4(C)[C@H]3CC[C@]2(C)[C@H]1C(C)=O` [3BETA-ACETOXY-16ALPHA-[2(2-ACETOXY ETHOXY)-ETHOXY]-PREGN-5-EN-20-ONE], the Activity in [2] is on record as 23%; in assay [3] it was 20%; in [4], 15%. Moreover, the inhibition in vivo at 100 mg/kg in assay [5] is -22%.
